We go through three compounds from US20080234130A1, “Compositions providing tolerance to multiple herbicides and methods of use thereof” (priority 2005, published 2008).

The subject of data set [1] is non-transformed GS3 embryos. Description: Glyphosate kill curve on culture media. The data set is classed as cell-based, maize. Particulars: about 40 days culture. How it is done: (§1) A glyphosate kill curve was established by testing non-transformed embryos response on media with different levels of glyphosate. GS3 embryos were isolated from an immature ear and placed onto media containing glyphosate at 0.0, 0.5, 1.0, and 2.0 mM. After about 40 days culture, the response of the embryos were observed and recorded. Similarly, infected GS3 embryos with the GAT construct were placed onto media containing glyphosate at 0.0, 0.5, 1.0, and 2.0 mM. After about 40 days culture, the response of the infected embryos were observed and recorded (FIG. 7).

Data set [2] deals with GAT-HRA transgenic cotton plants. Description: Greenhouse over the top herbicide spray of cotton. The data set is classed as in vivo, Gossypium hirsutum. The following applies: glyphosate over the top at 4-6 leaf stage, 1.5 lb acid equivalent per acre; 14 days after application. The text has this:
(§2) Transformed cotton plants were rooted and then transferred to soil for further growth. Plants were then subjected to herbicide spray treatments in a greenhouse. […] Untransformed Coker 312 control plants were dead 2 weeks after glyphosate application. […] Plants transformed with both GAT and HRA were further subjected to an “over the top” application of the sulfonylurea herbicide rimsulfuron at a rate of 16 g active ingredient/hectare. […] In further experiments 32 g ai/ha rimsulfuron were applied to the cotton.

Data set [3] relates to untransformed Coker 312 cotton. Description: Greenhouse over the top herbicide spray of cotton. Particulars: glyphosate over the top at 4-6 leaf stage, 1.5 lb acid equivalent per acre; 2 weeks after application. Type of data set: in vivo, Gossypium hirsutum.
Source text: as §2

Data set [4] relates to non-glyphosate resistant Conyza (Welgevallen-paraquat resistant). Description: Control of hairy fleabane by glyphosate, metsulfuron-methyl and two additives (Table 24). The data set is classed as in vivo, Conyza bonariensis. The method, then: This example included the same treatments as used in Example 11, except the treatments were carried out on a glyphosate sensitive biotype of Kleinskraalhans (Conyza bonariensis).
• Biotype: Non-glyphosate resistant Conyza (Welgevallen-paraquat resistant) • Growth Stage: 10-15 leaf stage • Conditions: Cool and sunny • Volume rate: 200 L ha^−1 • glyphosate (ROUNDUP): 360 g a.i. L^−1

The subject of another data set is GAT-HRA soybeans. Description: Postemergence greenhouse spray of soybeans, visual injury (Table 11). Particulars: 8960 g/ha. How it is done:
(§3) Young regenerated transgenic plants were sprayed with 1× glyphosate (1× rate of glyphosate is 1120 g/ha of glyphosate isopropylamine) to cull segregants. Four replications were performed for each treatment. Plants were then treated with various herbicides, including glyphosate and ALS-inhibitor herbicides.
(§4) Six soybean seeds from each variety to be assayed were planted 1 cm deep in 5.5 (13.97 cm) inch square plastic container of a synthetic growth medium. […] When possible, containers were thinned to two uniform plants. Non-transgenic lines were thinned to two uniform plants per container.
(§5) Results are expressed below in Table 11 as the mean of four replications.

Data set [5] concerns non-transgenic control soybeans. The description is as above. Particulars: 8960 g/ha. How it is done: as §3, §4, §5
Data set [6] deals with parent elite stiff stalk inbred corn. Description: Postemergence effect of ALS herbicides, glyphosate and glufosinate (fresh weight, visual injury). Particulars: 200 g/ha (glyphosate 3472 g ae/ha, glufosinate ammonium 1870 g/ha), mean of four replications.
Data set [7] has as its system infected GS3 embryos with the GAT construct. Description: Glyphosate selection of embryos infected with the GAT construct. Type of data set: cell-based, maize. Particulars: media with 1.0 mM or 2.0 mM glyphosate, about 40 days culture. How it is done:
as §1

Data set [8] deals with heterozygous GAT-HRA corn. Description: Postemergence effect of ALS herbicides, glyphosate and glufosinate (fresh weight, visual injury). The following applies: 200 g/ha (glyphosate 3472 g ae/ha, glufosinate ammonium 1870 g/ha), mean of four replications.
For data set [9], the system named is Fairview (Tulbagh) ryegrass resistant to glyphosate, paraquat, and ACCase-inhibitors. Description: Control of resistant ryegrass by glyphosate, metsulfuron-methyl and two additives (Table 25). The data set is classed as in vivo. Particulars: Trial 1: glyphosate (ROUNDUP) 0.5 L/ha. The method, then: This example was conducted on one of the most resistant ryegrass types in the world, ryegrass resistant to non-selective herbicides, e.g., Fairview (Tulbagh), which is resistant to glyphosate, paraquat, and ACCase-inhibitors. In this example, the addition of metsulfuron-methyl (BRUSH-OFF®) at 5 and 10 g ha^−1, with 1% ammonium sulfate-based adjuvant (ADD-UP®) to 0.5 L Roundup improved control by 44% (e.g., 50% to 94%).
• Biotype: Fairview (Tulbagh) resistant to glyphosate, paraquat, and ACCase-inhibitors. • Growth Stage: 10-15 leaf stage • Conditions: Cool and sunny • 15 Volume rate: 200 L ha^−1 • glyphosate (ROUNDUP): 360 g ai L^−1

For data set [10] the test system is unchanged. Description: Control of resistant ryegrass by glyphosate and representative SU's (Table 26). The data set is classed as in vivo. The following applies: Trial 2: glyphosate (SCAT) 6 L/ha; sprayed with 1% ADD-UP. The text has this:
In this example, four different SU's were applied together with glyphosate (SCAT®) on the resistant ryegrass. The results as to the best SU partner for glyphosate were inconclusive, but the average benefit of applying an SU with glyphosate on herbicide resistant ryegrass was 39% (e.g., 34% control with glyphosate (SCAT®) only and 57-83% control with glyphosate (SCAT®) plus metsulfuron-methyl (BRUSH-OFF®), chlorsulfuron (GLEAN®), or triasulfuron (LOGRAN®)).
• Biotype: Fairview (Tulbagh) resistant to glyphosate, paraquat, and ACCase-inhibitors. • Growth Stage: 4 leaf stage • Conditions: Cool and sunny • Volume rate: 200 L ha^−1 • All treatments sprayed with 1% ADD-UP

Data set [11] has as its system non-glyphosate resistant ryegrass (70-04). Description: Control of ryegrass by glyphosate, metsulfuron-methyl and two additives (Table 23). The data set is classed as in vivo. Particulars: Trial 1: glyphosate (SCAT) 0.5 L/ha. How it is done:
The example was conducted on non-glyphosate resistant ryegrass. As provided in Table 23, all treatments that included glyphosate [180 g a.i. L ha^−1 (0.5 L glyphosate (SCAT®))] plus metsulfuron-methyl (BRUSH-OFF®) (5 and 10 g ha^−1) gave 100% control of the ryegrass.
• Biotype: non-glyphosate resistant ryegrass (70-04) • Population profile: Rup 0.25 control (%) 6.25 • Rup 0.5 control (%) 81.25 • Rup 1.0 control (%) 93.75 • Growth Stage: 5-6 leaf stage • Conditions: hot and sunny • Volume rate: 200 L ha^−1

Where [12] appears, read: 2 weeks after treatment, 0% no injury, 100% plant death.

Take `O=C(O)CNCP(=O)(O)O` [Glyphosate, N-phosphonomethylglycine]: the callus growth in data set [1] (media with 1.0 and 2.0 mM glyphosate) is given as “very little callus growth”. Further, in data set [1] (medium with 0.5 mM glyphosate), the “embryos showing callus initiation” value is “about half of the embryos”. In addition, the “GAT-HRA transgenic plants with no deleterious symptoms” value in [2] is on record as “approximately 50%”. For the same compound, the “effect on untransformed Coker 312 control plants” value in [3] is “dead”. The plants killed in [4] (glyphosate on its own, 10-15 leaf stage, 200 L ha^-1) is on record as 1 out of 16 plants. Also, the “% Visual Injury” value is listed as 40% in the data set on GAT-HRA soybeans (Event # 59, Line # 21); 37% in the data set on GAT-HRA soybeans (Event # 59, Line # 28); 38% in the data set with GAT-HRA soybeans (Event # 59, mean); 19% in the data set with GAT-HRA soybeans (Event # 60, Line # 07); 11% in the data set with GAT-HRA soybeans (Event # 60, Line # 11); 11% in the data set on GAT-HRA soybeans (Event # 60, Line # 22). Also, the “% Visual Injury” value was found to be 9% with GAT-HRA soybeans (Event # 60, Line # 35); 13% in the data set on GAT-HRA soybeans (Event # 60, Line # 41); 20% in the data set on GAT-HRA soybeans (Event # 60, Line # 46); 9% with GAT-HRA soybeans (Event # 60, Line # 70); 14% in the data set with GAT-HRA soybeans (Event # 60, Line # 75); 19% in the data set with GAT-HRA soybeans (Event # 60, Line # 77). Also, the “% Visual Injury” value with GAT-HRA soybeans (Event # 60, Line # 79) was found to be 18%; with GAT-HRA soybeans (Event # 60, Line # 82) it was 20%; in the data set with GAT-HRA soybeans (Event # 60, Line # 84), 22%; in the data set on GAT-HRA soybeans (Event # 60, mean), 15%; in the data set on GAT-HRA soybeans (Event # 61, Line # 02), 10%; with GAT-HRA soybeans (Event # 61, Line # 02B), 10%. Moreover, the “% Visual Injury” value in the data set with GAT-HRA soybeans (Event # 61, Line # 05) was found to be 11%; in the data set with GAT-HRA soybeans (Event # 61, Line # 14), 10%; in the data set with GAT-HRA soybeans (Event # 61, Line # 18) it was 10%; with GAT-HRA soybeans (Event # 61, Line # 24), 60%; in the data set on GAT-HRA soybeans (Event # 61, Line # 33), 84%; in the data set on GAT-HRA soybeans (Event # 61, Line # 34), 23%. In addition, the “% Visual Injury” value in the data set with GAT-HRA soybeans (Event # 61, Line # 47) turned out to be 15%; with GAT-HRA soybeans (Event # 61, Line # 49), 9%; in the data set with GAT-HRA soybeans (Event # 61, Line # 51) it was 10%; in the data set with GAT-HRA soybeans (Event # 61, Line # 60) it was 16%; in the data set on GAT-HRA soybeans (Event # 61, Line # 62), 6%; in the data set with GAT-HRA soybeans (Event # 61, Line # 99) it was 10%. Besides, the “% Visual Injury” value in the data set on GAT-HRA soybeans (Event # 61, mean) was 20%; with GAT-HRA soybeans (Event # 64, Line # 41), 20%; in the data set on GAT-HRA soybeans (Event # 64, Line # 47), 10%; in the data set on GAT-HRA soybeans (Event # 64, mean), 14%; in [5] (STS ®, Line # 25) it was 100%; in data set [5] (STS ®, Line # 46), 100%. Also, the “% Visual Injury” value is 100% in data set [5] (STS ®, mean); 100% in data set [5] (Wild Type, Line # 82); 100% in data set [5] (Wild Type, Line Jack); 100% in data set [5] (Wild Type, mean). Besides, the “% Visual Injury Parent elite stiff stalk inbred” value in [6] (setting [12]) worked out at 100%. Moreover, the “Fresh Weight (g) Parent elite stiff stalk inbred” value in data set [6] (applied two weeks after planting, fresh shoots 2 weeks after treatment, untreated 76.4 g) is given as 1.0 g. The “resistant callus initiation of infected embryos” value in [7] is “some embryos initiated resistant callus”. In addition, in data set [8] (setting [12]), the “% Visual Injury Heterozygous GAT-HRA” value is listed as 10%. Further, in [8] (applied two weeks after planting, fresh shoots 2 weeks after treatment, untreated 98.8 g), the “Fresh Weight (g) Heterozygous GAT-HRA” value is 97.4 g.
As to `O=C(O)CNCP(=O)(O)O` [glyphosate (ROUNDUP ®)], the “Control (%)” value in data set [4] (Trial 1: glyphosate (ROUNDUP) 0.5 L/ha) was determined as 12%; in [9], 50%.
`O=C(O)CNCP(=O)(O)O` [glyphosate (SCAT ®)]: the “Control (%)” value was 34% in data set [10] and 94% in [11].
